Test results from EP4596574A1, “GLP-1/GCG/GIP TRIPLE-RECEPTOR AGONIST AND USE THEREOF” (Sunshine Lake Pharma Co., Ltd., priority 2022, dated 2024).
Marks after values point to notes of the source that are not given here. Starred links: 1 amine or outer side, 2 acyl side, 3 side chain; linkers in the order of their positions; H or OH if unused. Non-standard residues stand in square brackets, D forms with d. Residues, ends and D or L forms follow the SMILES beside them. Groups on a side chain read outwards from the residue. *: point of attachment. C18 diacid = O=C(O)CCCCCCCCCCCCCCCCC(=O)*; αMePhe(2-F) = C[C@](N)(Cc1ccccc1F)C(=O)O; γGlu = O=C(O)[C@H](CCC(=O)[*:2])N[*:1]; AEEA = NCCOCCOCC(=O)O; Aib = CC(C)(N)C(=O)O

Experiments:
[1] = Pharmacokinetic study in rats, single subcutaneous injection; conditions: male, Sprague Dawley, in vivo, sc, rat, 50 nmol/kg single subcutaneous injection, plasma; for half-life: read-out: T1/2 (converted); for Tmax: read-out: Tmax
Procedure: The pharmacokinetic study of each polypeptide compound prepared in Example 1 was conducted using male Sprague Dawley rats. There were 3 male rats in each group. […] The dose was 50 nmol/kg, and a single subcutaneous injection was given (see Table 3 for specific peptide compounds). After administration, plasma was collected on the specified days and time points, and the concentration of each peptide compound in the plasma was detected by LC-MS/MS method. The pharmacokinetic parameters were obtained based on the concentration data, which were used to describe the pharmacokinetic properties of the peptide in rats after subcutaneous injection. Table 3: Summary of pharmacokinetic parameters of some triple-target peptides in rats

GCGR = molecular target: T1, GCGR (Homo sapiens, UniProt P47871); assay: In vitro cell activity, cAMP production in HEK293 cells expressing GCGR; type: cell-based
T1 construct: expressed in transfected cells; host or cells: HEK293 (HEK293-GCGR)
T1 sequence (P47871 26-477, species assumed): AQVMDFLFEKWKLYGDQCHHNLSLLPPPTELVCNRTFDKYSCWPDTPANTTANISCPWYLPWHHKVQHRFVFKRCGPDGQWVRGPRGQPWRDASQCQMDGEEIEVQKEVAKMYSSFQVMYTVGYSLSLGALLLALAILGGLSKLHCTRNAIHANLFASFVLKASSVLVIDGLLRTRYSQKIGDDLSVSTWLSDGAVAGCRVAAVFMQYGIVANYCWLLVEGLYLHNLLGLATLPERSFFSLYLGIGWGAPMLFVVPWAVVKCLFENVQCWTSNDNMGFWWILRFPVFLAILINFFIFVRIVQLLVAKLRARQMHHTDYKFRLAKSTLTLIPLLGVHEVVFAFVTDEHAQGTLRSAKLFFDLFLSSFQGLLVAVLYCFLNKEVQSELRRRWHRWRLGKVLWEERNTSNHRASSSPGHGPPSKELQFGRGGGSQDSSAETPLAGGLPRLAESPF
Summary of the method: (§1)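 Assay format: cells at 4×10^5 cells/mL, cAMP sensed by d2/cryptate FRET pair, dual-wavelength read at 665 and 620 nm. Potency expressed as EC50 from nonlinear fitting.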

GIPR = molecular target: T2, GIPR (Homo sapiens, UniProt P48546); assay: In vitro cell activity, cAMP production in HEK293 cells expressing GIPR; type: cell-based
T2 construct: expressed in transfected cells; host or cells: HEK293 (HEK293-GIPR)
T2 sequence (P48546 22-466): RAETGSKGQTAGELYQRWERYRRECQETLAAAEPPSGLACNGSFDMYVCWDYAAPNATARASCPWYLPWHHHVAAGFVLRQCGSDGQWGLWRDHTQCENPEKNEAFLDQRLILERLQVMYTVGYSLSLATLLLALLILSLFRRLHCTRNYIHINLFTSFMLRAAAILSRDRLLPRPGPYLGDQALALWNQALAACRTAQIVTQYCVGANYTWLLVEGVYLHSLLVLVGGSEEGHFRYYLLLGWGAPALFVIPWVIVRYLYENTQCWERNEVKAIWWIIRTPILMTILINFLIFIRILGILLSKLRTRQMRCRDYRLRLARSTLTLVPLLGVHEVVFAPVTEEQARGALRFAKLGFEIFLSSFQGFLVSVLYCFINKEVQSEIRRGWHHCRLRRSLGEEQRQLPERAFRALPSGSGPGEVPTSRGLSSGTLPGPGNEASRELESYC
Summary of the method: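 cAMP accumulation is quantified by homogeneous TR-FRET (cAMP-d2 plus anti-cAMP cryptate) in GIPR-expressing HEK293 cells seeded from a 4×10^5 cells/mL suspension and treated with compound. The signal ratio is plotted against concentration and fitted to a four-parameter curve to give EC50.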

[2] = Glucose tolerance assessment in normal C57BL/6 mice (Example 5); type: in vivo; conditions: for Blood glucose level (mM) 15 min / Blood glucose level (mM) 30 min / Blood glucose level (mM) 60 min / Blood glucose level (mM) 90 min / Blood glucose level (mM) 0 min / AUC0-90 min: 3 nmol/kg s.c. single dose, 24 h after administration; for Blood glucose level (mM) 15 min: 15 min after 2 g/kg glucose i.p.; for Blood glucose level (mM) 30 min: 30 min after 2 g/kg glucose i.p.; for Blood glucose level (mM) 60 min: 60 min after 2 g/kg glucose i.p.; for Blood glucose level (mM) 90 min: 90 min after 2 g/kg glucose i.p.; for Blood glucose level (mM) 0 min: basal before 2 g/kg glucose i.p.; for AUC0-90 min: blood glucose AUC, 2 g/kg glucose i.p.
Procedure: Twelve hours after the single administration, the animals were fasted for 12 hours and had free access to water. Blood was collected from the tail vein to determine the basal blood glucose level of each group of animals, and then 2 g/kg glucose solution was injected intraperitoneally. Blood glucose was tested at 15, 30, 60, and 90 min after glucose administration. The blood glucose concentration-time curve was drawn according to the blood glucose values measured at different time points, and the AUC0~90min of each dose group was calculated as shown in Table 5 and Figure 2. Table 5: Effects of single administration of HEC-PT86, HEC-PT96, HEC-PT112, HEC-PT113, HEC-PT114, and HEC-PT119 on glucose tolerance in normal C57 mice 24 h after administration

GLP-1R = molecular target: T3, GLP-1R (Homo sapiens, UniProt P43220); assay: In vitro cell activity, cAMP production in HEK293 cells expressing GLP-1R; type: cell-based
T3 construct: expressed in transfected cells; host or cells: HEK293 (HEK293-GLP-1R)
T3 sequence (P43220 24-463, species assumed): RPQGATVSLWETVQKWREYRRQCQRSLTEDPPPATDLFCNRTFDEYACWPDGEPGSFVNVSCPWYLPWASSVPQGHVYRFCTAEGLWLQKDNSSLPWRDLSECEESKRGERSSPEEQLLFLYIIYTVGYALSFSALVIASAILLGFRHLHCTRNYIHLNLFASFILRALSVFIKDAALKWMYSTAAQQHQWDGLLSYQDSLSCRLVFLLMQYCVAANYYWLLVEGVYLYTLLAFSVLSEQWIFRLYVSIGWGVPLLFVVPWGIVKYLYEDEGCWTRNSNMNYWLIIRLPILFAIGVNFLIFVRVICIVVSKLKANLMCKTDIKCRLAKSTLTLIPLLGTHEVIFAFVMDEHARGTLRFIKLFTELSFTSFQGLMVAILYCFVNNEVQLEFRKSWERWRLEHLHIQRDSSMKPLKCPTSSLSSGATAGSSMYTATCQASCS
Summary of the method: as §1

Compound | AUC(0-inf) [1] [ng·h/mL] | AUC(0-t) [1] [ng·h/mL] | Cmax [1] [ng/mL] | half-life [1] [h] | Tmax [1] [h] | EC50 (GCGR) [nM] | EC50 (GIPR) [nM] | Blood glucose level (mM) 15 min [2] [mM] | Blood glucose level (mM) 30 min [2] [mM] | Blood glucose level (mM) 60 min [2] [mM] | Blood glucose level (mM) 90 min [2] [mM] | Blood glucose level (mM) 0 min [2] [mM] | AUC0-90 min [2] | EC50 (GLP-1R) [nM] | improvement of glucose tolerance compared with LY3298176 ([2]; 24 hours after a single administration, 3 nmol/kg)
CC[C@H](C)[C@H](NC(=O)[C@H](Cc1ccccc1)NC(=O)[C@H](C)NC(=O)[C@H](CCCNC(=N)N)NC(=O)[C@H](CCC(N)=O)NC(=O)[C@H](CCCNC(=N)N)NC(=O)[C@H](CCCCNC(=O)COCCOCCNC(=O)CC[C@H](NC(=O)CCCCCCCCCCCCCCCCC(=O)O)C(=O)O)NC(=O)[C@H](CCC(=O)O)NC(=O)[C@H](CC(=O)O)NC(=O)[C@H](CC(C)C)NC(=O)[C@H](CC(C)C)NC(=O)[C@@H](NC(=O)[C@H](CO)NC(=O)[C@H](Cc1ccc(O)cc1)NC(=O)[C@H](CC(=O)O)NC(=O)[C@H](CO)NC(=O)[C@@H](NC(=O)[C@](C)(Cc1ccccc1F)NC(=O)[C@@H](NC(=O)CNC(=O)[C@H](Cc1c[nH]cn1)NC(=O)C(C)(C)NC(=O)[C@@H](N)Cc1ccc(O)cc1)[C@@H](C)O)[C@@H](C)O)[C@@H](C)CC)C(=O)N[C@@H](CCC(=O)O)C(=O)N[C@@H](Cc1ccc(O)cc1)C(=O)N[C@@H](CC(C)C)C(=O)N[C@@H](CC(C)C)C(=O)N[C@@H](C)C(=O)NCC(=O)NCC(=O)N1CCC[C@H]1C(=O)N[C@@H](CO)C(=O)N[C@@H](CO)C(=O)NCC(=O)N[C@@H](C)C(=O)N1CCC[C@H]1C(=O)N1CCC[C@H]1C(=O)N1CCC[C@H]1C(=O)N[C@@H](CO)C(=O)O [HEC-PT119] | 43800 ± 10700 | 43500 ± 10700 | 974 ± 248 | 16 ± 1.6 | 19 ± 9.2 | 0.266 | 0.0484 | 14.0 ± 2.2 | 10.8 ± 1.8 | 7.8 ± 0.7 | 6.7 ± 0.7 | 4.1 ± 0.4 | 817.4±95.1^a | 0.189 | –
CC[C@H](C)[C@H](NC(=O)[C@H](CCCCN)NC(=O)[C@H](CC(=O)O)NC(=O)[C@H](CCCCNC(=O)COCCOCCNC(=O)CC[C@H](NC(=O)CCCCCCCCCCCCCCCCC(=O)O)C(=O)O)NC(=O)[C@H](CC(C)C)NC(=O)[C@@H](NC(=O)[C@H](CO)NC(=O)[C@H](Cc1ccc(O)cc1)NC(=O)[C@H](CC(=O)O)NC(=O)[C@H](CO)NC(=O)[C@@H](NC(=O)[C@](C)(Cc1ccccc1F)NC(=O)[C@@H](NC(=O)CNC(=O)[C@H](CCC(N)=O)NC(=O)C(C)(C)NC(=O)[C@@H](N)Cc1ccc(O)cc1)[C@@H](C)O)[C@@H](C)O)[C@@H](C)CC)C(=O)N[C@@H](C)C(=O)N[C@@H](CCC(N)=O)C(=O)N[C@@H](CCC(N)=O)C(=O)N[C@@H](C)C(=O)N[C@@H](Cc1ccccc1)C(=O)N[C@H](C(=O)N[C@@H](CCC(=O)O)C(=O)N[C@@H](Cc1ccc(O)cc1)C(=O)N[C@@H](CC(C)C)C(=O)N[C@@H](CC(C)C)C(=O)N[C@@H](CCC(=O)O)C(=O)NCC(=O)NCC(=O)N1CCC[C@H]1C(=O)N[C@@H](CO)C(=O)N[C@@H](CO)C(=O)NCC(=O)N[C@@H](C)C(=O)N1CCC[C@H]1C(=O)N1CCC[C@H]1C(=O)N1CCC[C@H]1C(=O)N[C@@H](CO)C(N)=O)[C@@H](C)CC [HEC-PT113] (H-Y[Aib]QGT[αMePhe(2-F)]TSDYSILK([AEEA-γGlu-C18 diacid])DKIAQQAFIEYLLEGGPSSGAPPPS-NH2) | 27900 ± 4180 | 27700 ± 4110 | 714 ± 63.2 | 11 ± 0.62 | 13 ± 9.9 | 0.171 | 0.0188 | 12.6 ± 1.7 | 8.0 ± 1.0 | 7.9 ± 1.3 | 6.7 ± 0.8 | 4.6 ± 0.9 | 743.5±48.5^a | 0.103 | improved glucose tolerance in mice better than the positive control LY3298176
CC[C@H](C)[C@H](NC(=O)[C@H](Cc1ccccc1)NC(=O)[C@H](CCC(=O)O)NC(=O)[C@H](CCCNC(=N)N)NC(=O)[C@H](CCC(N)=O)NC(=O)[C@H](CCCNC(=N)N)NC(=O)[C@H](CCCCNC(=O)COCCOCCNC(=O)CC[C@H](NC(=O)CCCCCCCCCCCCCCCCCCC(=O)O)C(=O)O)NC(=O)[C@H](CCC(=O)O)NC(=O)[C@H](CC(=O)O)NC(=O)[C@H](CC(C)C)NC(=O)[C@H](CC(C)C)NC(=O)[C@@H](NC(=O)[C@H](CO)NC(=O)[C@H](Cc1ccc(O)cc1)NC(=O)[C@H](CC(=O)O)NC(=O)[C@H](CO)NC(=O)[C@@H](NC(=O)[C@](C)(Cc1ccccc1F)NC(=O)[C@@H](NC(=O)CNC(=O)[C@H](Cc1c[nH]cn1)NC(=O)C(C)(C)NC(=O)[C@@H](N)Cc1ccc(O)cc1)[C@@H](C)O)[C@@H](C)O)[C@@H](C)CC)C(=O)N[C@@H](CCC(=O)O)C(=O)N[C@@H](Cc1c[nH]c2ccccc12)C(=O)N[C@@H](CC(C)C)C(=O)N[C@@H](CC(C)C)C(=O)N[C@@H](C)C(=O)NCC(=O)NCC(=O)N1CCC[C@H]1C(=O)N[C@@H](CO)C(=O)N[C@@H](CO)C(=O)NCC(=O)N[C@@H](C)C(=O)N1CCC[C@H]1C(=O)N1CCC[C@H]1C(=O)N1CCC[C@H]1C(=O)N[C@@H](CO)C(=O)O [HEC-PT96] | 40900 ± 1990 | 40300 ± 1930 | 840 ± 41.4 | 17 ± 0.65 | 25 ± 2.3 | 0.192 | 0.149 | 13.0 ± 2.9 | 10.8 ± 3.2 | 7.9 ± 1.6 | 6.2 ± 1.3 | 4.2 ± 0.6 | 798.9±146.0^a | 0.158 | –
